Results published in ChEMBL document CHEMBL3871294, “Synthesis of novel substituted pyrimidine derivatives bearing a sulfamide group and their in vitro cancer growth inhibition activity” (Bioorg Med Chem Lett, 2017).

Test: Antiproliferative activity against human HT-29 cells after 48 hrs by SRB assay
Format: functional
Settings: HT-29, 48 h

Row | SMILES | GI50 [µM]
1 | NS(=O)(=O)NCC1CCN(c2cc(-c3ccc(C(F)(F)F)cc3)ncn2)CC1 | 29.1
2 | NS(=O)(=O)NCC1CCN(c2cc(-c3ccccc3Cl)ncn2)CC1 | > 100
3 | CCOC(=O)c1ccc(-c2cc(N3CCC(CCNS(N)(=O)=O)CC3)ncn2)cc1 | 6.8
4 | NS(=O)(=O)NCCC1CCN(c2cc(-c3ccc(Cl)cc3)ncn2)CC1 | 30.5
5 | NS(=O)(=O)NCC1CCN(c2cc(-c3ccccc3F)ncn2)CC1 | 80.4
6 | COC(=O)c1ccc(-c2cc(N3CCC(CCNS(N)(=O)=O)CC3)ncn2)cc1 | 19.6
7 | Cc1ccc(-c2cc(N3CCC(CCNS(N)(=O)=O)CC3)ncn2)cc1 | 52.3
8 | COc1ccc(-c2cc(N3CCC(CCNS(N)(=O)=O)CC3)ncn2)cc1 | 72.3
9 | NS(=O)(=O)NCC1CCN(c2cc(-c3cccc4ccccc34)ncn2)CC1 | 6.8
10 | COc1ccccc1-c1cc(N2CCC(CCNS(N)(=O)=O)CC2)ncn1 | 74.3
11 | CCCCc1ccc(-c2cc(N3CCC(CCNS(N)(=O)=O)CC3)ncn2)cc1 | 13.3
12 | NS(=O)(=O)NCC1CCN(c2cc(-c3ccccc3)ncn2)CC1 | > 100
13 | CC(C)(C)c1ccc(-c2cc(N3CCC(CCNS(N)(=O)=O)CC3)ncn2)cc1 | 10.3
14 | NS(=O)(=O)NCCC1CCN(c2cc(-c3cccc(Cl)c3)ncn2)CC1 | 31.6
15 | CCOC(=O)c1ccc(-c2cc(N3CCC(CNS(N)(=O)=O)CC3)ncn2)cc1 | 5.7
16 | CC(C)(C)c1ccc(-c2cc(N3CCC(CNS(N)(=O)=O)CC3)ncn2)cc1 | 8.9
17 | NS(=O)(=O)NCC1CCN(c2cc(-c3ccc(Cl)cc3)ncn2)CC1 | 37.7
18 | COC(=O)c1ccc(-c2cc(N3CCC(CNS(N)(=O)=O)CC3)ncn2)cc1 | 22.9
19 | COc1ccc(-c2cc(N3CCC(CNS(N)(=O)=O)CC3)ncn2)cc1 | > 100
20 | NS(=O)(=O)NCCC1CCN(c2cc(-c3ccccc3F)ncn2)CC1 | 51.8
21 | NS(=O)(=O)NCCC1CCN(c2cc(-c3cccc4ccccc34)ncn2)CC1 | 3.5
22 | COc1ccccc1-c1cc(N2CCC(CNS(N)(=O)=O)CC2)ncn1 | > 100
23 | NS(=O)(=O)NCCC1CCN(c2cc(-c3ccccc3)ncn2)CC1 | 66.5
24 | NS(=O)(=O)NCC1CCN(c2cc(-c3cccc(Cl)c3)ncn2)CC1 | 47.5
25 | Cc1ccc(-c2cc(N3CCC(CNS(N)(=O)=O)CC3)ncn2)cc1 | 33.9
26 | CCCCc1ccc(-c2cc(N3CCC(CNS(N)(=O)=O)CC3)ncn2)cc1 | 15.2
27 | NS(=O)(=O)NCCC1CCN(c2cc(-c3ccc(C(F)(F)F)cc3)ncn2)CC1 | 22.6
28 | NS(=O)(=O)NCCC1CCN(c2cc(-c3ccccc3Cl)ncn2)CC1 | 52.9

Test: Antiproliferative activity against human M21 cells after 48 hrs by SRB assay
Format: functional
Settings: M21, 48 h

Row | SMILES | GI50 [µM]
29 | NS(=O)(=O)NCC1CCN(c2cc(-c3ccc(C(F)(F)F)cc3)ncn2)CC1 | 43.1
30 | NS(=O)(=O)NCC1CCN(c2cc(-c3ccccc3Cl)ncn2)CC1 | > 100
31 | CCOC(=O)c1ccc(-c2cc(N3CCC(CCNS(N)(=O)=O)CC3)ncn2)cc1 | 9
32 | NS(=O)(=O)NCCC1CCN(c2cc(-c3ccc(Cl)cc3)ncn2)CC1 | 45.2
33 | NS(=O)(=O)NCC1CCN(c2cc(-c3ccccc3F)ncn2)CC1 | > 100
34 | COC(=O)c1ccc(-c2cc(N3CCC(CCNS(N)(=O)=O)CC3)ncn2)cc1 | 19.6
35 | Cc1ccc(-c2cc(N3CCC(CCNS(N)(=O)=O)CC3)ncn2)cc1 | 57.6
36 | COc1ccc(-c2cc(N3CCC(CCNS(N)(=O)=O)CC3)ncn2)cc1 | 69.8
37 | NS(=O)(=O)NCC1CCN(c2cc(-c3cccc4ccccc34)ncn2)CC1 | 6.6
38 | COc1ccccc1-c1cc(N2CCC(CCNS(N)(=O)=O)CC2)ncn1 | 96.9
39 | CCCCc1ccc(-c2cc(N3CCC(CCNS(N)(=O)=O)CC3)ncn2)cc1 | 15.1
40 | NS(=O)(=O)NCC1CCN(c2cc(-c3ccccc3)ncn2)CC1 | > 100
41 | CC(C)(C)c1ccc(-c2cc(N3CCC(CCNS(N)(=O)=O)CC3)ncn2)cc1 | 18.4
42 | NS(=O)(=O)NCCC1CCN(c2cc(-c3cccc(Cl)c3)ncn2)CC1 | 50.7
43 | CCOC(=O)c1ccc(-c2cc(N3CCC(CNS(N)(=O)=O)CC3)ncn2)cc1 | 5
44 | CC(C)(C)c1ccc(-c2cc(N3CCC(CNS(N)(=O)=O)CC3)ncn2)cc1 | 19.3
45 | NS(=O)(=O)NCC1CCN(c2cc(-c3ccc(Cl)cc3)ncn2)CC1 | 50.3
46 | COC(=O)c1ccc(-c2cc(N3CCC(CNS(N)(=O)=O)CC3)ncn2)cc1 | 14.1
47 | COc1ccc(-c2cc(N3CCC(CNS(N)(=O)=O)CC3)ncn2)cc1 | > 100
48 | NS(=O)(=O)NCCC1CCN(c2cc(-c3ccccc3F)ncn2)CC1 | 81.8
49 | NS(=O)(=O)NCCC1CCN(c2cc(-c3cccc4ccccc34)ncn2)CC1 | 1.8
50 | COc1ccccc1-c1cc(N2CCC(CNS(N)(=O)=O)CC2)ncn1 | > 100
51 | NS(=O)(=O)NCCC1CCN(c2cc(-c3ccccc3)ncn2)CC1 | > 100
52 | NS(=O)(=O)NCC1CCN(c2cc(-c3cccc(Cl)c3)ncn2)CC1 | 62.5
53 | Cc1ccc(-c2cc(N3CCC(CNS(N)(=O)=O)CC3)ncn2)cc1 | 71
54 | CCCCc1ccc(-c2cc(N3CCC(CNS(N)(=O)=O)CC3)ncn2)cc1 | 47.2
55 | NS(=O)(=O)NCCC1CCN(c2cc(-c3ccc(C(F)(F)F)cc3)ncn2)CC1 | 34.8
56 | NS(=O)(=O)NCCC1CCN(c2cc(-c3ccccc3Cl)ncn2)CC1 | 93.9

Test: Antiproliferative activity against estrogen dependent human MCF7 cells after 48 hrs by SRB assay
Format: functional
Settings: MCF7, 48 h

Row | SMILES | GI50 [µM]
57 | NS(=O)(=O)NCC1CCN(c2cc(-c3ccc(C(F)(F)F)cc3)ncn2)CC1 | 22.5
58 | NS(=O)(=O)NCC1CCN(c2cc(-c3ccccc3Cl)ncn2)CC1 | 62.4
59 | CCOC(=O)c1ccc(-c2cc(N3CCC(CCNS(N)(=O)=O)CC3)ncn2)cc1 | 6.2
60 | NS(=O)(=O)NCCC1CCN(c2cc(-c3ccc(Cl)cc3)ncn2)CC1 | 19.7
61 | NS(=O)(=O)NCC1CCN(c2cc(-c3ccccc3F)ncn2)CC1 | 48.5
62 | COC(=O)c1ccc(-c2cc(N3CCC(CCNS(N)(=O)=O)CC3)ncn2)cc1 | 17.6
63 | Cc1ccc(-c2cc(N3CCC(CCNS(N)(=O)=O)CC3)ncn2)cc1 | 47.5
64 | COc1ccc(-c2cc(N3CCC(CCNS(N)(=O)=O)CC3)ncn2)cc1 | 56.6
65 | NS(=O)(=O)NCC1CCN(c2cc(-c3cccc4ccccc34)ncn2)CC1 | 12.1
66 | COc1ccccc1-c1cc(N2CCC(CCNS(N)(=O)=O)CC2)ncn1 | 69.8
67 | CCCCc1ccc(-c2cc(N3CCC(CCNS(N)(=O)=O)CC3)ncn2)cc1 | 11.3
68 | NS(=O)(=O)NCC1CCN(c2cc(-c3ccccc3)ncn2)CC1 | 34.3
69 | CC(C)(C)c1ccc(-c2cc(N3CCC(CCNS(N)(=O)=O)CC3)ncn2)cc1 | 13.1
70 | NS(=O)(=O)NCCC1CCN(c2cc(-c3cccc(Cl)c3)ncn2)CC1 | 31.2
71 | CCOC(=O)c1ccc(-c2cc(N3CCC(CNS(N)(=O)=O)CC3)ncn2)cc1 | 4.1
72 | CC(C)(C)c1ccc(-c2cc(N3CCC(CNS(N)(=O)=O)CC3)ncn2)cc1 | 19.7
73 | NS(=O)(=O)NCC1CCN(c2cc(-c3ccc(Cl)cc3)ncn2)CC1 | 25.5
74 | COC(=O)c1ccc(-c2cc(N3CCC(CNS(N)(=O)=O)CC3)ncn2)cc1 | 17.7
75 | COc1ccc(-c2cc(N3CCC(CNS(N)(=O)=O)CC3)ncn2)cc1 | 35.3
76 | NS(=O)(=O)NCCC1CCN(c2cc(-c3ccccc3F)ncn2)CC1 | > 100
77 | NS(=O)(=O)NCCC1CCN(c2cc(-c3cccc4ccccc34)ncn2)CC1 | 5.9
78 | COc1ccccc1-c1cc(N2CCC(CNS(N)(=O)=O)CC2)ncn1 | 10.1
79 | NS(=O)(=O)NCCC1CCN(c2cc(-c3ccccc3)ncn2)CC1 | 53.2
80 | NS(=O)(=O)NCC1CCN(c2cc(-c3cccc(Cl)c3)ncn2)CC1 | 47.1
81 | Cc1ccc(-c2cc(N3CCC(CNS(N)(=O)=O)CC3)ncn2)cc1 | 30.6
82 | CCCCc1ccc(-c2cc(N3CCC(CNS(N)(=O)=O)CC3)ncn2)cc1 | 21.8
83 | NS(=O)(=O)NCCC1CCN(c2cc(-c3ccc(C(F)(F)F)cc3)ncn2)CC1 | 15.2
84 | NS(=O)(=O)NCCC1CCN(c2cc(-c3ccccc3Cl)ncn2)CC1 | 44.8

Test: Antiproliferative activity against human MDA-MB-231 cells
Format: functional
Settings: not given

Row | SMILES | GI50 [µM]
85 | NS(=O)(=O)NCC1CCN(c2cc(-c3ccccc3Cl)ncn2)CC1 | > 100
86 | NS(=O)(=O)NCC1CCN(c2cc(-c3ccccc3)ncn2)CC1 | > 100
87 | COc1ccc(-c2cc(N3CCC(CNS(N)(=O)=O)CC3)ncn2)cc1 | > 100
88 | COc1ccccc1-c1cc(N2CCC(CNS(N)(=O)=O)CC2)ncn1 | > 100

Test: Antiproliferative activity against human MDA-MB-468 cells
Format: functional
Settings: not given

Row | SMILES | GI50 [µM]
89 | NS(=O)(=O)NCC1CCN(c2cc(-c3ccccc3Cl)ncn2)CC1 | > 100
90 | NS(=O)(=O)NCC1CCN(c2cc(-c3ccccc3)ncn2)CC1 | > 100
91 | COc1ccc(-c2cc(N3CCC(CNS(N)(=O)=O)CC3)ncn2)cc1 | > 100
92 | COc1ccccc1-c1cc(N2CCC(CNS(N)(=O)=O)CC2)ncn1 | > 100

Test: Antiproliferative activity against human SKBR3 cells
Format: functional
Settings: SK-BR-3

Row | SMILES | GI50 [µM]
93 | NS(=O)(=O)NCC1CCN(c2cc(-c3ccccc3Cl)ncn2)CC1 | > 100
94 | NS(=O)(=O)NCC1CCN(c2cc(-c3ccccc3)ncn2)CC1 | > 100
95 | COc1ccc(-c2cc(N3CCC(CNS(N)(=O)=O)CC3)ncn2)cc1 | > 100
96 | COc1ccccc1-c1cc(N2CCC(CNS(N)(=O)=O)CC2)ncn1 | > 100

Test: Antiproliferative activity against human T47D cells
Format: functional
Settings: not given

Row | SMILES | GI50 [µM]
97 | NS(=O)(=O)NCC1CCN(c2cc(-c3ccccc3Cl)ncn2)CC1 | 65.5
98 | NS(=O)(=O)NCC1CCN(c2cc(-c3ccccc3)ncn2)CC1 | 24.1
99 | COc1ccc(-c2cc(N3CCC(CNS(N)(=O)=O)CC3)ncn2)cc1 | 24.5
100 | COc1ccccc1-c1cc(N2CCC(CNS(N)(=O)=O)CC2)ncn1 | > 100

Test: Antiproliferative activity against human HaCaT cells
Format: cell-based
Settings: not given

Row | SMILES | GI50 [µM]
101 | NS(=O)(=O)NCC1CCN(c2cc(-c3ccccc3Cl)ncn2)CC1 | > 100
102 | NS(=O)(=O)NCC1CCN(c2cc(-c3ccccc3)ncn2)CC1 | > 100
103 | COc1ccc(-c2cc(N3CCC(CNS(N)(=O)=O)CC3)ncn2)cc1 | > 100
104 | COc1ccccc1-c1cc(N2CCC(CNS(N)(=O)=O)CC2)ncn1 | > 100

Test: Antiproliferative activity against neonatal-NHDF cells
Format: cell-based
Settings: human

Row | SMILES | GI50 [µM]
105 | NS(=O)(=O)NCC1CCN(c2cc(-c3ccccc3Cl)ncn2)CC1 | 93
106 | NS(=O)(=O)NCC1CCN(c2cc(-c3ccccc3)ncn2)CC1 | > 100
107 | COc1ccc(-c2cc(N3CCC(CNS(N)(=O)=O)CC3)ncn2)cc1 | 77
108 | COc1ccccc1-c1cc(N2CCC(CNS(N)(=O)=O)CC2)ncn1 | > 100
